Patent US20100069393A1, “METHOD OF TREATMENT AND AGENTS USEFUL FOR SAME” (PRANA BIOTECHNOLOGY LIMITED, priority 2006, published 2010)

Columns and labels:
[1] = Cytotoxicity: viability of M17 cells; details: human, M17 neuroblastoma cells, Cytotoxicity (% viable at 1 and 10 uM); for viability at 1 uM: test compound 1 uM; for viability at 10 uM: test compound 10 uM
[2] = In vivo toxicity, visual observations; details: 30 mg/kg, number of days
[3] = Mice plasma concentration; type: in vivo; details: for Mice plasma concentration: presence in plasma at one or two time points (between 30 min and 4 h); for Mice plasma concentration in Tg mice: one or two time points (between 30 min and 4 h)
[4] = Blood brain barrier penetration (brain:plasma ratio after IV dose); type: in vivo; details: nominal dose 5 mg/kg, male Swiss Outbred mice
Experimental: A bolus injection of each of the test compound (50 μL of a 3 mg/mL aqueous solution containing 40% propylene glycol and 10% ethanol) was administered by tail vein injection to male Swiss Outbred mice (5-7 weeks of age).
At 5 and 60 min post-dose (n=3 mice at each time point), blood was collected by cardiac puncture and the whole brain was removed by making an incision through the back of the skull. Mice were anaesthetised approximately 3-4 min prior to blood and brain harvest with an intraperitoneal injection of ketamine and xylazine (133 mg/kg and 10 mg/kg, respectively).
The whole brain was placed into preweighed polypropylene vials and stored at −20° C. until analysis. On the day of analysis, the whole brain was homogenised in 3 parts of water (on ice to reduce the potential for ex vivo brain degradation) and an aliquot of the brain homogenate and plasma was analysed for compound concentration by LCMS. Standards were prepared by spiking blank brain homogenate and both samples and standards were processed by adding acetonitrile to the tissue homogenate, centrifuging and injecting an aliquot of the supernatant onto the LCMS.
To ensure complete recovery of compound from the brain, brain homogenate was spiked with compound (in 50% acetonitrile:50% water) to a nominal concentration of 500 ng/mL. The concentration of compound in the supernatant was then determined by LCMS and compared to the supernatant concentration when compound was added following precipitation with acetonitrile.

[5] = Neurotoxicity assay: MTS viability of primary cortical neuronal cultures; type: cell-based, mouse; details: BL6Jx129sv, mouse, primary cortical neuronal cultures, Neuronal cells, read-out: Cytotoxicity (% viable at 1 and 10 uM); for viability at 4 days, 1 uM: test compound 1 uM; for viability at 4 days, 10 uM: test compound 10 uM
[6] = system: M17 human neuroblastoma cells; assay: Cytotoxicity: viability of M17 cells
[7] = E Log D (chromatographic method, pH 7.4); type: physicochemical
Experimental: Effective Log D values were measured using a chromatographic method employing a SUPELCOSIL LC-ABZ column using an octanol saturated mobile phase at pH 7.4. See F. Lombardo et al, J. Med. Chem. 2000, 43, 2922-2928.

[8] = Phase I safety and tolerability in healthy volunteers; type: in vivo, human
Experimental: Compound B was administered to healthy volunteers in a 2-part study comprising single dose administration (Stage A) and multidose administration (Stage B).
The objectives of the Phase I trials were to determine the safety, tolerability and pharmacokinetics of single and multiple oral doses of Compound B in healthy volunteers. The double-blind studies were conducted at a Phase I unit in The Netherlands. The protocol included safety measures designed to capture the potential human adverse effects. A total of 65 healthy subjects have been exposed to doses of Compound B (41 single dose, 24 multiple dose).
In Stage A, fifty five (55) healthy male subjects aged 18-50 years were randomised (3:1) to receive a single oral dose of either placebo or Compound B at one of 7 dose levels (25, 50, 100, 200, 300, 500 or 800 mg).
In Stage B, thirty two (32) healthy male and female subjects aged 45-75 years (eight subjects per dose level) were randomised (3:1) to receive a daily oral dose over 7 consecutive days of either placebo or Compound B at one of 4 dose levels (200, 400, 600 or 800 mg). Each dose level comprised of 4 males and 4 females; the randomisation schedule ensuring that 1 subject/sex received placebo and 3 subjects/sex received Compound B.

[9] = in vitro; details: human, Cytotoxicity (% viable at 1 and 10 uM)
[10] = system: primary cortical neuronal cultured cells; assay: Neurotoxicity assay: MTS viability of primary cortical neuronal cultures; type: cell-based, mouse

| Structure (SMILES) | Mice plasma concentration [3] | B:P Ratio ([4]; 5 min post dose) | B:P Ratio ([4]; 60 min post dose) | viability at 1 uM [1] | viability at 10 uM [1] | Toxicity at 30 mg/kg [2] | viability at 4 days, 1 uM [5] | viability at 4 days, 10 uM [5] | other results |
| --- | --- | --- | --- | --- | --- | --- | --- | --- | --- |
| O=c1c2c(Cl)cc(Cl)c(O)c2ncn1Cc1ccccn1 | Up to 984 ng/mL | 0.16 | 0.10 | 102% | 98.9% | 10 days, none | 99% | 98% |  |
| O=c1c2c(Cl)cc(Cl)c(O)c2ncn1-c1ccc(F)cc1 |  |  |  | 93.2% | 47.3% | 5 days, none | 98% | 67% | ElogD (E) [7]: 5.32; Mice plasma concentration in Tg mice [3]: Up to 120 ng/mL in Tg mice |
| CN(C)Cc1ccc2c(Cl)cc(Cl)c(O)c2n1 [Compound B] |  |  |  |  |  |  |  |  | incidence of adverse events ([8]; Stage A, single oral dose 25-800 mg, healthy male volunteers aged 18 to 50 years): 43.9%; tolerability ([8]; Stage A, single oral dose, healthy male volunteers aged 18 to 50 years): well tolerated; tolerability ([8]; Stage B, daily oral dose over 7 days (200-800 mg), healthy subjects aged 45-75 years): generally well tolerated |
| Oc1c(N2CCOCC2)ncc2cccnc12 |  |  |  | 112% | 93.7% | 10 days, mild toxic signs | 104% | 98% | ElogD (E) [7]: 1.45; Mice plasma concentration in Tg mice [3]: Below 80 ng/mL in Tg mice |
| O=c1c2cccc(O)c2ncn1Cc1cn2ccccc2n1 |  |  |  |  |  |  |  |  | viability at 1 uM [9]: 95%; viability at 10 uM [9]: 98.4% |
| Cc1noc(C)c1Cn1cnc2c(O)c(Cl)cc(Cl)c2c1=O | Up to 3644 ng/mL | 0.18 | 0.08 | 104% | 76% | 10 days, none | 99% | 72% |  |
| Oc1c(I)cc(Cl)c2cccnc12 | Up to 700 ng/mL | 0.20 | 0.17 | 107% | 72.7% | none | 90% | 77% | ElogD (E) [7]: 1.85 |
| CN(C)Cc1ccc2c(Cl)cc(Cl)c(O)c2n1.Cl [drawing 119] | Up to 500 ng/ml ng/mL | 12.85 | 9.45 | 94% | 54.3% | None | 84% | 72% |  |

Second part, led by results:

| Mice plasma concentration [3] | B:P Ratio ([4]; 5 min post dose) | B:P Ratio ([4]; 60 min post dose) | Structure (SMILES) | viability at 1 uM [1] | viability at 10 uM [1] | Toxicity at 30 mg/kg [2] | viability at 4 days, 1 uM [5] | viability at 4 days, 10 uM [5] | other results |
| --- | --- | --- | --- | --- | --- | --- | --- | --- | --- |
| Up to 5000 ng/mL | 0.26 | 0.24 | O=c1c2c(Cl)cc(Cl)c(O)c2ncn1C1CC1 | 105% | 72% | 10 days, none | 91% | 77% |  |
| Up to 144.2 ng/mL |  |  | O=c1c2c(Cl)cc(Cl)c(O)c2ncn1-c1ccccn1 [drawing 288] |  |  | 10 days, none |  |  | Cytotoxicity (% viable at 1 and 10 uM) ([6]; test compound 1 uM): 107.8%; Cytotoxicity (% viable at 1 and 10 uM) ([6]; test compound 10 uM): 89.2% |
| Up to 2439 ng/mL | 0.10 at 5 min, 0.10 at 60 min | 0.10 at 5 min, 0.10 at 60 min | Cc1nc(Cn2cnc3c(O)c(Cl)cc(Cl)c3c2=O)cs1 | 97% | 95.7% | 10 days, none | 100% | 93% |  |
| Up to 2698 ng/mL | 0.12 | 0.07 | O=c1c2c(Cl)cc(Cl)c(O)c2ncn1CC1CC1 | 96.2% | 76.8% | 11 days, none | 116% | 105% |  |
| Up to 2949 ng/mL |  |  | CCC(C)n1cnc2c(O)c(Cl)cc(Cl)c2c1=O (centres unmarked) [drawing 189] |  |  | 10 days, none |  |  | Cytotoxicity (% viable at 1 and 10 uM) ([6]; test compound 1 uM): 99.2%; Cytotoxicity (% viable at 1 and 10 uM) ([6]; test compound 10 uM): 68.6%; Cytotoxicity (% viable at 1 and 10 uM) ([10]; test compound 1 uM): 94%; Cytotoxicity (% viable at 1 and 10 uM) ([10]; test compound 10 uM): 67% |
